Patent publication US20260191793A1, “HBV SPECIFIC EXOSOMES AND USES THEREOF” (priority 2022, published 2026)

Tested on: HBV replication in HepG2/2.2.15 cells
Assay: Antiviral efficiency of synthetic gRNA/Cas9 RNPs in HepG2/2.2.15 cells (HBsAg/HBeAg ELISA, HBV mRNA and HBV DNA real-time PCR)
Assay type: cell-based, Hepatitis B virus (HBV)
Set-up: reduction in HBsAg expression / reduction of HBV mRNA expression: concentration or dose not given beside the values
Conditions: for reduction of HBV mRNA expression: HepG2/2.2.15 cells, real-time PCR, vs gRNAc
Protocol: The HepG2.2.15 Human Hepatoblastoma cell line (Cat #SCC249, MilliporeSigma, Burlington, MA) is a traditional HBV cellular model that is widely used for studying HBV infection and drug development. HepG2.2.15 cells display constitutive HBV RNA transcription and DNA replication, but a lesser detection of cccDNA by Southern blot and PCR detection. The HepG2/2.2.15 cells were cultured in DMEM (Cat #MT10013CV, Fisher Scientific, Waltham, MA) supplemented with 10% Fetal bovine serum, penicillin, and streptomycin (50 ug/ml each; Fisher Scientific) and maintained at 37° C. and 5% CO2 atmosphere. The Amaxa Cell Line Nucleofector Kit V (Lonza VCA-1003) was used to deliver gRNA/Cas9 into HepG2/2.2.15 cells stably expressing HBV. For each transfection, 160 μM gRNA and 160 μM tracrRNA were first incubated at 37° C. for 30 minutes, followed by adding 80 μM Cas9 protein and incubating at 37° C. for 15 minutes. Approximately 40 μM of the gRNA/Cas9 complex was transfected into HepG2/2.2.15 cells (5×10^5) following the manufacturer's instructions. After 72 hours, the culture supernatants were harvested to measure HBV antigens by ELISA, and the cell pellets were used to determine HBV DNA or mRNA levels by real-time-PCR.
The levels of HBsAg and HBeAg in the supernatants of cell cultures were determined by ELISA (Cat #KA0286 and NBP2-600029, Novus Biologicals, Littleton, CO) according to the manufacturer's protocol. The optical density of antigen levels was measured at 450 nm using a microplate spectrophotometer. The samples were run in triplicate, and the experiments were repeated at least three times.
Total RNA was extracted from the cell pellets by the RNeasy Mini kit (Cat #74104, QIAGEN, Germantown, MD), and 1 μg RNA was converted to cDNA using the Applied Biosystems High-Capacity cDNA Reverse Transcription Kit (Cat #43-688-14, ThermoFisher, Waltham, MA). Quantitative real-time PCR (real-time-qPCR) was performed using iTaq Universal SYBR Green Supermix (Cat #1725124, Bio-Rad, Hercules, CA). The PCR primers were: HBV mRNA forward, 5′-[…]-3′ (SEQ ID NO: 52), reverse, 5′-[…]-3′ (SEQ ID NO: 53); HBV pgRNA forward 5′-[…]-3′ (SEQ ID NO: 54), reverse 5′-[…]-3′ (SEQ ID NO: 55); and GAPDH forward 5′-[…]-3′ (SEQ ID NO: 56), reverse 5′-[…]-3′ (SEQ ID NO: 57). The gene expression levels were determined by the […] method and values were normalized to GAPDH expression as an internal control.
Total and protein-free HBV DNAs were extracted from whole cell lysate using the Hirt DNA method according to a previously published protocol. For HBV cccDNA analysis, the protein-free DNA was treated with 10 units of T5 exonuclease (NEB) at 37° C. for 30 min, followed by 95° C. for 5 min, and diluted 4-fold with nuclease-free water. Next, the cccDNA was cleaned with a DNA clean and concentrator kit (ZYMO Research, Irvine, CA) and used for PCR. HBV total DNA and cccDNA were analyzed by real-time PCR using a TaqMan PCR assay. The primers and probe used to amplify HBV total DNA were: HBV total DNA forward: 5′-[…]-3′ (SEQ ID NO: 58), reverse 5′-[…]-3′ (SEQ ID NO: 59), and internal probe: 5′-FAM-[…]-TAMRA-3′ (SEQ ID NO: 60). The primers and probe used to amplify HBV cccDNA (Genotype D, subtype ayw) were: forward: 5′-[…]-3′ (SEQ ID NO: 61), reverse 5′-[…]-3′ (SEQ ID NO: 62), and internal probe 5′-FAM-[…]-TAMRA-3′ (SEQ ID NO: 63). The PCR reactions were performed in 20 μl volumes and contained 2 μl DNA. The PCR conditions were: 95° C. for 10 min, followed by 45 cycles of 95° C. for 15 s and 64° C. for 30 s. The DNA levels were determined by the […] method and values were normalized to the control group.
Because the hepatoma cell line HepG2/2.2.15 is a traditional HBV cellular model used to test the efficacy and cytotoxicity of anti-HBV drugs, the synthetic gRNA/Cas9 RNPs were tested for their antiviral efficiency in HepG2/2.2.15 cells. […]

| Sequence | reduction in HBsAg expression (HepG2/2.2.15 supernatant, 3 days after nucleofection, ELISA, vs scrambled gRNAc) | reduction of HBV mRNA expression |
| --- | --- | --- |
| GAAGCGAAGTGCACACGGTCNGG (guide GAAGCGAAGUGCACACGGUCNGG; complexed with Cas9 as ribonucleoprotein, chemistry not given here) [gRNA8, tested as synthetic gRNA/Cas9 RNP] | 50% |  |
| GATTGAGACCTTCGTCTGCGNGG (guide GAUUGAGACCUUCGUCUGCGNGG; complexed with Cas9 as ribonucleoprotein, chemistry not given here) [gRNA1, tested as synthetic gRNA/Cas9 RNP] |  | ~ 50% |
| GTCGCAGAAGATCTCAATCTNGG (guide GUCGCAGAAGAUCUCAAUCUNGG; complexed with Cas9 as ribonucleoprotein, chemistry not given here) [gRNA3, tested as synthetic gRNA/Cas9 RNP] |  | ~ 50% |
